Data as given in patent publication US20110028495A1, “THE USE OF 6-HALOGENO-[1,2,4]-TRIAZOLO-[1,5-a]-PYRIMIDINE COMPOUNDS FOR COMBATING PESTS IN AND ON ANIMALS” (priority 2007, published 2011).

Assays:
[1] = tested on: Cat flea (Ctenocephalides felis); experiment: Ingestion assay with Ctenocephalides felis (treated cow blood); conditions: po, adult C. felis fed treated cow blood, 72 hours post treatment, read-out: EC50 (mortality of C. felis)
Protocol: B.5 Activity Against Cat Flea (Ctenocephalides felis)
B.5.1 Ingestion Assay with Ctenocephalides felis
The compounds were formulated in 100% DMSO and were diluted with fresh cow blood to final testing concentrations of 50 ppm, 12.5 ppm, 3.125 ppm, 0.78 ppm and 0.195 ppm. Ten adult C. felis were loaded into testing cages and exposed to blood containing the test compound for up to 72 hours. Blood was changed at 24 hour intervals until the test was completed and kept at 37° C. for duration of the test. The efficacy of a compound was determined based on mortality of C. felis at 72 hours post treatment.

[2] = tested on: Mediterranean fruitfly (Ceratitis capitata); experiment: Activity against Mediterranean fruitfly (eggs/hatched larvae, microtiter plate); conditions: 144 h, eggs sprayed, 6 days, compared to 0% mortality of untreated controls
Protocol: B.1 Activity Against Mediterranean Fruitfly (Ceratitis capitata)
The compounds were formulated in 1:3 DMSO:water. 50 to 80 eggs were placed into microtiterplates filled with 0.5% agar-agar and 14% diet in water. The eggs were sprayed with 5 μl of the test solution, the plates were sealed with pierced foils and kept at 27-29° C. and 75-85% humidity under fluorescent light for 6 days. Mortality was assessed on the basis of the agility of the hatched larvae. Tests were replicated 2 times.

Caenorhabditis elegans = experiment: Activity against Caenorhabditis elegans (L1 larval motility); conditions: L1 C. elegans, dose response assay, read-out: EC50 (reduction in motility of L1 larvae)
Protocol: B.2 Activity Against Caenorhabditis elegans
(§1) The compounds were formulated in 100% DMSO and were tested in microtiter plates containing 50 μl nematode growth media, 1% E. coli and 20 L1 C. elegans. The efficacy of a compound was determined based on the motility of the larvae as compared to average motility of control wells containing DMSO only. Compounds with >80% reduction in motility were tested in a dose response assay to determine EC50 values.

cat fleas = experiment: Efficacy against fleas in dogs (spot-on); type: in vivo, cat fleas on dogs; conditions: 20 mg/kg, days 9, 16 and 23, compared to the placebo group
Excerpt: (§2) B.7 Study to Evaluate Efficacy of Compounds Against Fleas and Ticks in Dogs
(§3) Dogs were infested with 100 cat fleas on days −1, 8, 15, 22, 29, and 36, and 50 brown dog ticks on days −1, 7 14, 21, 28, and 35. Infested dogs receive a treatment of a compound or placebo in the form of spot-on applied at the middle of the neck between the shoulder blades. Live fleas and ticks were removed and counted on days 2, 9, 16, 23, 30, and 37.

brown dog ticks = experiment: Efficacy against ticks in dogs (spot-on); type: in vivo, brown dog ticks on dogs; conditions: 20 mg/kg, days 9, 16 and 23, compared to the placebo group
Excerpt: as §2, §3

[3] = tested on: Yellowfever mosquito (Aedes aegypti); experiment: Activity against yellowfever mosquito (neonate larval motility); conditions: neonate A. aegypti larvae, dose response assay
Protocol: B.4. Activity Against Yellowfever Mosquito (Aedes aegypti)
as §1, with “180 ul X Luria Broth media” for “50 μl nematode growth media, 1% E. coli”, “10 neonate A. aegypti larvae.” for “20 L1 C. elegans.”

Row | Compound | LC50 [1] [µg/mL] | EC50 (Caenorhabditis elegans) [µg/mL] | further results
1 | Cc1nc2ncnn2c(NC(C)c2ccc(OC(F)(F)CF)cc2)c1Cl (racemic) [C.I.38] | < 50 |  | mortality at 2500 ppm [2]: > 75%
2 | CCc1nc2ncnn2c(NC(C)c2ccc(OC(F)(F)CF)cc2)c1Cl (racemic) [C.I.49] |  |  | mortality at 2500 ppm [2]: > 75%
3 | CCc1nc2ncnn2c(NC(C)c2ccc(-c3ccccc3)cc2)c1Cl (racemic) [C.I.59] |  | < 10 | 
4 | Cc1nc2ncnn2c(NC2CCC(C)CC2)c1Cl (stereo not shown) [C.I.1] |  | < 10 | 
5 | Cc1nc2ncnn2c(NC2CCC(C(C)C)CC2)c1Cl (stereo not shown) [C.I.2] |  | < 10 | 
6 | CCC(C)[C@H]1CC[C@@H](Nc2c(Cl)c(C)nc3ncnn23)CC1 (stereo partly shown) [C.I.5] | < 50 |  | 
7 | Cc1nc2ncnn2c(NCc2ccc(Oc3ccc(Cl)cc3)cc2)c1Cl [C.I.10] | < 50 | < 10 | 
8 | Cc1nc2ncnn2c(NCc2ccc(Oc3ccc(Br)cc3)cc2)c1Cl [C.I.11] | < 50 | < 10 | 
9 | Cc1nc2ncnn2c(NCc2ccc(Oc3ccc(Cl)c(Cl)c3)cc2)c1Cl [C.I.12] |  | < 10 | 
10 | CCc1nc2ncnn2c(NC2CCC(C(C)C)CC2)c1Cl (stereo not shown) [C.I.17] | < 50 |  | 
11 | CCc1nc2ncnn2c(NC2CCC(C(C)CC)CC2)c1Cl (stereo not shown) [C.I.18] | < 50 |  | 
12 | CCc1nc2ncnn2c(N[C@H]2CC[C@@H](C(C)(C)C)CC2)c1Cl [C.I.20] | < 50 |  | efficacy against fleas (cat fleas): > 80%; efficacy against ticks (brown dog ticks): > 80%
13 | CCc1nc2ncnn2c(N[C@@H](C)c2ccc(Cl)cc2)c1Cl [C.I.22] |  |  | mortality at 2500 ppm [2]: > 75%
14 | CCc1nc2ncnn2c(N[C@@H](C)c2ccc(Br)cc2)c1Cl [C.I.23] |  | < 10 | 
15 | CCc1nc2ncnn2c(N[C@@H](C)c2ccc(OC(F)F)cc2)c1Cl [C.I.31] | < 50 |  | EC50 (reduction in motility of larvae) [3]: < 1 ppm
16 | CCc1nc2ncnn2c(NCCc2ccc(OC(F)(F)F)cc2)c1Cl [C.I.32] |  | < 10 | 
17 | Cc1nc2ncnn2c(N[C@H]2CC[C@@H](C(F)(C(F)(F)F)C(F)(F)F)CC2)c1Cl [C.I.34] | < 50 | < 10 | 
18 | Cc1nc2ncnn2c(N[C@@H](C)c2ccc3ccccc3c2)c1Cl [C.I.37] | < 50 |  | 
19 | Cc1nc2ncnn2c(N[C@@H](C)c2ccc(OC(F)(F)C(F)F)cc2)c1Cl [C.I.40] |  | < 10 | 
20 | CCC(Nc1c(Cl)c(C)nc2ncnn12)c1ccc(OC(F)(F)C(F)C(F)(F)F)cc1 (stereo not shown) [C.I.43] |  | < 10 | mortality at 2500 ppm [2]: > 75%
21 | CCc1nc2ncnn2c(N[C@H]2CC[C@@H](CCC(F)(F)F)CC2)c1Cl [C.I.45] |  | < 10 | 
22 | CCc1nc2ncnn2c(N[C@H]2CC[C@@H](C(F)(C(F)(F)F)C(F)(F)F)CC2)c1Cl [C.I.46] |  | < 10 | 
23 | CCc1nc2ncnn2c(NC(CC)c2ccc(OC(F)(F)C(F)C(F)(F)F)cc2)c1Cl (stereo not shown) [C.I.53] |  |  | mortality at 2500 ppm [2]: > 75%
24 | CCc1nc2nc(C)nn2c(N[C@H]2CC[C@@H](C(C)(C)C)CC2)c1Cl [C.I.55] |  |  | mortality at 2500 ppm [2]: > 75%
25 | CCc1nc2nc([S+](C)[O-])nn2c(N[C@@H](C)c2ccc(C)cc2)c1Cl (stereo partly shown) [C.I.56] |  | < 10 | 
26 | CCc1nc2ncnn2c(N[C@@H](C)c2cccc(OCc3ccccc3)c2)c1Cl [C.I.58] |  | < 10 | 
